# Target: glutathione S-transferase (Schistosoma japonicum GST tag binding GSH beads)
# Assay: GST–glutathione bead interaction interference profiling – biochemical, multiplex beads, flow cytometry, profiling panel (AID 1769);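 also: target is a GST and green fluorescent protein fusion captured on glutathione beads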
# Conditions: flow cytometry fluorescence
row,SMILES,EC50
1,O=C(CSc1ccc2nnc(-c3ccncc3)n2n1)Nc1nccs1,35.1 µM
2,N#CCc1c(C#N)c(N)nc(N2CCN(C=O)CC2)c1C#N,15.7 µM
3,CCOC(=O)c1cc(C(=O)OCC)c(=O)[nH]c1N1CCCC1,35.9 µM
4,O=c1[nH]c(=O)c2nnc(N/N=C\c3ccc(O)cc3)nc2[nH]1,3.79 µM
5,O=C1/C(=C\c2ccc(-c3ccccc3Cl)o2)SC(=S)N1CC1CCCO1 (configuration not stated),17.3 µM
6,Nc1c(S(=O)(=O)c2cccs2)c2nc3ccccc3nc2n1/N=C/c1cccc(O)c1,0.355 µM
7,O=C(O)c1cc(-c2ccc(/C=C3\NC(=O)N(c4ccc(Cl)cc4)C3=O)o2)ccc1Cl,11.8 µM
8,O=C(CNC(=O)Cc1ccccc1)N=Nc1c(O)n(Cc2ccc3c(c2)OCO3)c2ccccc12,12 µM
9,COc1cccc2c(SCC(=O)N/N=C/c3ccc(O)cc3O)cc(C)nc12,45.4 µM
10,O=c1c2ccc([N+](=O)[O-])cc2ncn1Cc1ccccc1C(F)(F)F,7.62 µM
11,O=C(N/N=C/c1ccc2nccnc2c1)c1cccc([N+](=O)[O-])c1,8.59 µM
12,O=C(Cc1ccc(Nc2nc(=S)[nH]c3ccccc23)cc1)NC1CCCCC1,6.65 µM
13,C/C(=N\Nc1ccc(S(N)(=O)=O)cc1[N+](=O)[O-])c1ccc2c(c1)OCO2,1.4 µM
14,Cn1c(O)c(C2=c3ccccc3=NC2=O)[nH]c1=S,13.4 µM
15,COc1cc2c(cc1OC)-c1cc(NC3CCCCCCC3)nc(=O)n1CC2,20.5 µM
16,CCN(CC)c1ccc(/C=C(\C#N)C(=O)c2ccc(Br)cc2)cc1,11.1 µM
17,Cc1ccc(-c2csc3nc4c5ccccc5c(NCCCN5CCOCC5)nn4c(=O)c23)cc1,0.346 µM
18,Cc1c(CCC(=O)O)c(=O)oc2cc3occ(-c4ccc(F)cc4)c3cc12,70.5 µM
19,O=[N+]([O-])c1ccc(/C=C/C2=NN(c3ccccc3)C(c3ccco3)C2)cc1 (configuration not stated),1.34 µM
20,COc1ccc(OC)c(S(=O)(=O)Nc2ccc(O)c(Sc3ncn[nH]3)c2)c1,4.38 µM
21,Cc1cc2[nH]c3c(c[n+](C)c4ccccc34)c2cc1C,9.45 µM
22,CCNC(=S)N=Nc1c(O)[nH]c2ccc([N+](=O)[O-])cc12,1.93 µM
23,COc1ccc(OC)c(Nc2nc(-c3sc(N)nc3C)cs2)c1,26.9 µM

row,SMILES,EC50
1,Fc1cccc(Nc2ncnc3[nH]ncc23)c1,45.1 µM
2,COc1cc(NC(=O)c2cccs2)c(OC)cc1NC(=O)CCC(=O)Nc1ccc2ncccc2c1,0.481 µM
3,CN(/N=C/c1ccco1)C1=NS(=O)(=O)c2ccccc21,2.54 µM
4,Cc1cc(/C=c2\sc3nc4ccccc4n3c2=O)c(C)n1-c1ccc(C(=O)O)cc1,47.5 µM
5,Cc1cc2nc3c(=O)[nH]c(=O)[nH]c3nc2c([N+](=O)[O-])c1N,1.18 µM
6,CSc1nc(Cc2ccccc2)cc(=O)[nH]1,31.3 µM
7,O=C(Nc1cccc(Cl)c1)Nc1ccnc(-c2cccnc2)n1,0.499 µM
8,O=c1c2ccccc2nc2c3ccccc3c(Cl)nn12,2.04 µM
9,O=c1nc2c(O)cccn2c2c1c(=O)[nH]c1ccccc12,2.6 µM
10,COc1ccc(/C=N/n2c(N)c(S(=O)(=O)c3cccs3)c3nc4ccccc4nc32)cc1OC,0.612 µM
11,CC(=O)Oc1ccc2c(c1)Oc1cc(OC(C)=O)ccc1C21OC(=O)c2ccccc21,1.51 µM
12,CC(C)c1cc(NCc2ccccn2)n2c(nc3ccccc32)c1C#N,2.82 µM
13,CN1CCN(S(=O)(=O)c2cccc(C(=O)Nc3sc4c(c3C(N)=O)CCCC4)c2)CC1,19.8 µM
14,COc1cc2[nH]c(=S)nc(Nc3ccc(NC(C)=O)cc3)c2cc1OC,2.91 µM
15,COc1cc2c(cc1OC)-c1cc(NC3CCCCCC3)nc(=O)n1CC2,21 µM
16,CCOC(=O)c1c2c3c(c(Cl)ccc3[nH]c1=O)C(=O)c1ccccc1-2,0.4 µM
17,N=c1oc2ccc3ccccc3c2cc1-c1nc(-c2ccccc2)cs1,1.4 µM
18,COc1ccc(S(=O)(=O)N2CCCCC2)cc1NC(=O)c1ccc([N+](=O)[O-])o1,28.6 µM
19,O=C(CSc1ccc2nnc(-c3cccc(F)c3)n2n1)N1CCCc2ccccc21,0.16 µM
20,CN(/N=C/c1cccnc1)C1=NS(=O)(=O)c2ccccc21,5.05 µM
21,COc1ccc(-c2cc(=O)c(C(=O)c3ccc(C)cc3)n[nH]2)cc1,4.09 µM
22,O=c1c2ccccc2nc2ccc(NCc3cccs3)nn12,6.79 µM
23,O=C(O)CC/C(=C\c1ccc(N2CCCC2)c([N+](=O)[O-])c1)c1nc2ccccc2s1,37 µM

row,SMILES,EC50
1,COc1cc(C(=S)NCc2ccccc2)cc(Br)c1O,53.7 µM
2,O=C(COC(=O)c1ccc2c(c1[N+](=O)[O-])C(=O)c1ccccc1C2=O)NC1CC1,28 µM
3,Cc1cccc(/C=N/N(CCO)C2=NS(=O)(=O)c3ccccc32)c1,60.2 µM
4,COc1cc2[nH]c(=S)nc(NC3CCCCCC3)c2cc1OC,1.32 µM
5,Cc1cc(-c2nnc3n2N=C(c2ccc(-c4ccccc4)cc2)CS3)n[nH]1,6.8 µM
6,O=C(/C=C/c1ccc(N2CCC(c3ccccc3)=N2)cc1)c1ccccc1,0.34 µM
7,COc1ccc2o/c(=N/NC(=O)c3cccs3)c(C(N)=O)cc2c1,7.29 µM
8,CCN1/C(=C/C=C/c2oc3ccc4ccccc4c3[n+]2CC)Oc2ccc3ccccc3c21,0.223 µM
9,CCOc1cc(/C=C2\SC(=O)N=C2N)ccc1O,2.47 µM
10,O=C(Oc1c(Br)cc(C(=S)N2CCOCC2)cc1Br)c1ccc(Cl)cc1,2.97 µM
11,COc1cc(OC)c(-c2c3cc(O)c(=O)cc-3oc3cc(O)c(O)cc23)cc1OC,0.258 µM
12,O=[N+]([O-])c1cc(-c2ncccn2)c([N+](=O)[O-])s1,7.57 µM
13,CCOc1ccc(CCNc2ccc3nnc(-c4ccccc4)n3n2)cc1OCC,2.29 µM
14,CCOc1ccccc1C(=O)Nc1cccc(-c2ccc3nncn3n2)c1,1.96 µM
15,NS(=O)(=O)c1ccc(CCN2C(=O)/C(=C\c3ccc(Cl)cc3)SC2=S)cc1,6.03 µM
16,COCCCNc1nc(=S)[nH]c2cc(OC)c(OC)cc12,15.2 µM
17,C=CCNc1nc(=S)[nH]c2cc(OC)c(OC)cc12,13.3 µM
18,COc1cc(N2CCCC2)c(OC)cc1/C=C(/C#N)c1ccc(Br)cc1,0.0745 µM
19,Oc1ccc(/C=N/NC(=S)N/N=C/c2ccc(O)cc2)cc1,13.4 µM
20,CC(C)NC(=S)N=Nc1c(O)[nH]c2ccc([N+](=O)[O-])cc12,1.43 µM
21,COc1ccc(-c2c3c(nc4sc5c(=O)[nH]c(C)nc5c24)CCC3)cc1,3.74 µM
22,O=C(CN1CCN(c2ccc(O)cc2)CC1)Nc1cc(S(=O)(=O)N2CCCCC2)ccc1Cl,19.1 µM
23,COc1ccccc1Nc1nc(-c2c(C)nc3ncccn23)cs1,12.2 µM

row,SMILES,EC50
1,N#Cc1c(Nc2ccccc2)c(/C=N/N=C/c2ccccc2)c[nH]c1=O,4.1 µM
2,Nc1c([N+](=O)[O-])cc(-c2cnc[nH]2)cc1[N+](=O)[O-],0.391 µM
3,CN(/N=C/C=C/c1ccccc1)C1=NS(=O)(=O)c2ccccc21,6.02 µM
4,O=c1c2ccccc2nc2c3ccccc3c(NCc3cccnc3)nn12,0.348 µM
5,Cc1ccc(O)c(N=Cc2cc(Cc3ccccc3)cc([N+](=O)[O-])c2O)c1,8.29 µM
6,O=C(N/N=C/c1ccco1)c1ccc(C(=O)N/N=C/c2ccco2)o1,19.4 µM
7,Cc1cc2nc3c(=O)n(C4CCCCC4)c(=O)[nH]c3nc2cc1N,6.99 µM
8,Cc1nnc2ccc(-c3cccc(NC(=O)c4ccco4)c3)nn12,7.84 µM
9,COc1cccc(C2CC(c3ccccc3)Nc3ncnn32)c1 (configuration not stated),6.49 µM
10,N#Cc1c2nc3ccccc3nc2n2cc(NC(=O)c3ccc(F)cc3)ccc12,0.95 µM
11,CCOc1cccc(Nc2cc3n(c(=O)n2)CCc2cc(OC)c(OC)cc2-3)c1,64.5 µM
12,NC(=S)N=Nc1c(O)[nH]c2c(Br)cc(Br)cc12,69.1 µM
13,COc1cc2nc(=S)n(CCCN3CCOCC3)c(N)c2cc1OC,11 µM
14,CCN1/C(=C/c2ccc3cc(C)ccc3[n+]2C)Sc2ccc3sccc3c21,21 µM
15,CCCCNc1nc(=S)[nH]c2cc(OC)c(OC)cc12,10.9 µM
16,CCCc1nc2oc3c(=O)[nH]cnc3c2c2c1CCCC2,2.05 µM
17,Cn1cccc1/C=C1\SC(=S)N(NC(=O)c2ccccc2Cl)C1=O,51.7 µM
18,CC(C)(C)NC(=O)CCN(/N=C/c1ccc([N+](=O)[O-])o1)C1=NS(=O)(=O)c2ccccc21,3.39 µM
19,O=C(C[n+]1cccc2ccccc21)c1ccc(NC(=O)c2ccccc2)cc1,10.2 µM
20,COC(=O)c1cc(NC(=O)c2cccc(Cl)c2)c(=O)oc1/C=C/Nc1cc(C)cc(C)c1,0.567 µM
21,O=c1c2ccccc2nc2ccc(NCc3ccco3)nn12,50.8 µM
22,COc1ccc2c(C)nc(N/C(N)=N/S(=O)(=O)c3ccc(C)cc3)nc2c1,7.51 µM
23,O=S1(=O)N=C(N(CCO)/N=C/c2ccccc2)c2ccccc21,51.9 µM

row,SMILES,EC50
1,COc1ccc(S(=O)(=O)N2CCOCC2)cc1NC(=O)COc1cccnc1[N+](=O)[O-],64 µM
2,COc1cc2ccccc2cc1C(=O)NC(=S)Nc1cccc(C(=O)O)c1,9.3 µM
3,NC(=S)N=Nc1c(O)[nH]c2cc(F)c(F)cc12,15.6 µM
4,CN(C)S(=O)(=O)c1ccc(C(=O)NNc2nc(-c3ccccc3)c3cc(Br)ccc3n2)cc1,4.9 µM
5,Cc1nc2ncccn2c1-c1csc(Nc2ccc(O)cc2)n1,0.265 µM
6,CCOC(=O)c1cc2c(N)c(C(=O)c3ccc(Br)cc3)sc2[nH]c1=O,0.574 µM
7,COc1ccc(-c2csc(NC(=S)NC(=O)c3cccs3)n2)cc1OC,1.33 µM
8,Cc1cc(N/N=C/c2ccc(O)cc2O)nc(-n2nc(C)cc2C)n1,0.831 µM
9,NC(=O)c1cc2nc(-c3ccco3)cc(C(F)(F)F)n2n1,15.9 µM
10,CC(=O)Nc1ccc(Nc2ccc3c4c(cc(=O)n3C)-c3ccccc3C(=O)c24)cc1,0.151 µM
11,Cc1cc(=O)[nH]c2c(N=Nc3ccc(O)cc3)c(N)nn12,1.4 µM
12,COc1ccc(NC(=O)c2cc3nc(-c4ccccc4)cc(C)n3n2)cc1OC,2.85 µM
13,CCC(C)N1C(=O)/C(=C/c2c(NCCCOC(C)C)nc3c(C)cccn3c2=O)SC1=S (configuration not stated),0.201 µM
14,Cc1nc(N/N=C/c2ccc(O)cc2)c2cnn(-c3ccccc3)c2n1,3.58 µM
15,O=c1c2c(-c3ccccc3)csc2nc2c3ccccc3c(NCCN3CCOCC3)nn12,1.84 µM
16,O=C(CSc1ccc2nnc(-c3ccccn3)n2n1)Nc1nccs1,13 µM
17,COc1cccc2cc(-c3ccnc(=S)[nH]3)oc12,28.8 µM
18,Oc1c(CN2CCOCC2)ccc2ccccc12,24.5 µM
19,CCOc1ccc2c(c1)c(N=NC(=N)N)c(O)n2C,25.6 µM
20,COCCN1C(=O)/C(=C/c2ccc(N3CCCC3)cc2C)SC1=S,1.69 µM

# From PubChem BioAssay AID1769 (NMMLSC, 2009)
